Experimental data published in US20240381872A1, “SUBSTITUTED 2,3-DIHYDRO[1,3]THIAZOLO[4,5-B]PYRIDINES, SALTS THEREOF AND THEIR USE AS HERBICIDALLY ACTIVE SUBSTANCES” (BAYER AKTIENGESELLSCHAFT, priority 2021, published 2024).

Experiments:
Type in all cases: in vivo
Poa annua (POAAN) [1] = assay: Herbicidal post-emergence action, section B (Table B7); conditions: visual rating about 3 weeks after treatment vs untreated controls; for pest or weed control at 1280 g/ha: Poa annua, post-emergence, 504 h, read-out: post-emergence activity against POAAN in %
Procedure, shortened: (§1)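 Post-emergence greenhouse test. One-leaf stage; WP or EC plus 0.5% additive; 600 liters per hectare water volume; visual % rating at ~3 weeks relative to untreated plants.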

[2] = system: Digitaria sanguinalis (DIGSA); assay: Herbicidal post-emergence action, section B (Table B12); conditions: visual rating about 3 weeks after treatment vs untreated controls
Procedure, shortened: as §1

Poa annua (POAAN) [3] = assay: Herbicidal pre-emergence action, section A (Table A7); conditions: visual grading after ca. 3 weeks vs untreated controls; for pest or weed control at 320 g/ha: Poa annua, pre-emergence, 504 h, read-out: pre-emergence activity against POAAN in %
Procedure, shortened: (§2)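 Double sowings in sandy loam; soil-surface spray of WP/EC aqueous preparations, 0.5% additive, 600 l/ha water. Greenhouse, optimum conditions. Visual % damage at ~3 wk vs untreated (100% = dead, 0% = control-like).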

Stellaria media (STEME) = assay: Herbicidal post-emergence action, section B (Table B9); conditions: visual rating about 3 weeks after treatment vs untreated controls
Procedure, shortened: as §1

[4] = system: Abutilon theophrasti (ABUTH); assay: Herbicidal post-emergence action, section E (Table E1); conditions: assessed visually after ca. 3 weeks; for pest or weed control at 320 g/ha: Abutilon theophrasti, post-emergence, 504 h, read-out: post-emergence activity against ABUTH in %
From the text: Seeds of mono- and dicotyledonous weed plants and crop plants were sown, in plastic or organic planting pots, in sandy loam, covered with soil and grown in a greenhouse under controlled growth conditions. 2 to 3 weeks after sowing, the test plants were sprayed in the single-leaf stage. The compounds according to the invention, formulated in form of wettable powders (WP) or as emulsifiable concentrates (EC), were sprayed onto the green plant parts as aqueous suspension or emulsion, with the addition of 0.5% of an additive, at an application rate of 600 l of water/ha (converted). The test plants were placed in the greenhouse for ca. 3 weeks under optimum growth conditions, and then the effect of the preparations was assessed visually in comparison with untreated controls (herbicidal effect in percent (%): 100% effect=plants have died off, 0% effect=as control plants).

[5] = system: Abutilon theophrasti (ABUTH); assay: Herbicidal post-emergence action, section B (Table B1); conditions: rated visually after about 3 weeks; for pest or weed control at 1280 g/ha: Abutilon theophrasti, 504 h, read-out: post-emergence activity against ABUTH in %
Procedure, shortened: as §1

[6] = system: Amaranthus retroflexus (AMARE); assay: Herbicidal post-emergence action, section B (Table B11); conditions: visual rating about 3 weeks after treatment vs untreated controls; for pest or weed control at 1280 g/ha: application rate 1280 g/ha
Procedure, shortened: as §1

[7] = system: Amaranthus retroflexus (AMARE); assay: Herbicidal pre-emergence action, section C (Table C11); conditions: visual grading after ca. 3 weeks
Procedure, shortened: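 Pre-emergence, sandy loam. WP/EC formulations applied to covering soil surface, aqueous, + 0.5% additive, 600 l water/ha. Greenhouse, optimum growth. Visual % damage vs untreated, ca. 3 wk.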

Veronica persica (VERPE) [8] = assay: Herbicidal pre-emergence action, section A (Table A10); conditions: for pest or weed control at 1280 g/ha: Veronica persica, 504 h, read-out: pre-emergence activity against VERPE in %
Procedure, shortened: as §2

Veronica persica (VERPE) [9] = assay: Herbicidal post-emergence action, section E (Table E9); conditions: visual assessment ca. 3 weeks after spraying
Procedure, shortened: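 Post-emergence greenhouse spray onto single-leaf-stage plants raised in sandy loam, using WP or EC formulations with 0.5% additive at 600 l water/ha. Effect is the visual percentage damage relative to untreated controls after about 3 weeks.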

Oryza sativa (ORYZA) = assay: Post-emergence effects on crop plants, section F (Table F3); conditions: for percent crop plant damage at 80 g/ha: Oryza sativa, 504 h, application rate 80 g/ha, read-out: post-emergence activity against ORYZA in %
Procedure, shortened: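 Sandy loam, greenhouse, controlled conditions. Spray at single-leaf stage (2–3 wk post-sowing); WP/EC aqueous suspension/emulsion + 0.5% additive, 600 l water/ha; rate ≤320 g/ha. Visual scoring ca. 3 wk post-spray vs untreated, % effect.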

[10] = Stellaria media, post-emergence, 504 h, application rate 1280 g/ha, read-out: post-emergence activity against STEME in %
[11] = Amaranthus retroflexus, post-emergence, 504 h, read-out: post-emergence activity against AMARE in %
[12] = Veronica persica, 504 h, application rate 80 g/ha, read-out: post-emergence activity against VERPE in %

SMILES	post-emergence activity against POAAN in % (Poa annua (POAAN) [1]; application rate 320 g/ha) [%]	post-emergence activity against DIGSA in % ([2]; application rate 1280 g/ha) [%]	pre-emergence activity against POAAN in % (Poa annua (POAAN) [3]; application rate 320 g/ha) [%]	post-emergence activity against STEME in % (Stellaria media (STEME); application rate 320 g/ha) [%]	post-emergence activity against ABUTH in % ([4]; application rate 80 g/ha) [%]	post-emergence activity against ABUTH in % ([5]; application rate 320 g/ha) [%]	post-emergence activity against AMARE in % ([6]; application rate 320 g/ha) [%]	pre-emergence activity against AMARE in % ([7]; application rate 80 g/ha) [%]	pre-emergence activity against VERPE in % (Veronica persica (VERPE) [8]; application rate 1280 g/ha) [%]	post-emergence activity against VERPE in % (Veronica persica (VERPE) [9]; application rate 80 g/ha) [%]	pre-emergence activity against AMARE in % ([7]; application rate 320 g/ha) [%]	pest or weed control at 1280 g/ha (Poa annua (POAAN) [1]; application rate 1280 g/ha) [%]	pest or weed control at 320 g/ha (Poa annua (POAAN) [3]; application rate 320 g/ha) [%]	pest or weed control at 320 g/ha ([4]; application rate 320 g/ha) [%]	pest or weed control at 1280 g/ha (Veronica persica (VERPE) [8]; application rate 1280 g/ha) [%]	post-emergence activity against ABUTH in % ([4]; application rate 320 g/ha) [%]	post-emergence activity against VERPE in % (Veronica persica (VERPE) [9]; application rate 320 g/ha) [%]	further results
Cc1cc2c(nc1-c1ccccc1F)N(C(=O)C13CCCC1C(Cl)=NO3)CS2 (stereo not drawn) [Example I-104]	90	90	100	90	80	90	90	80	90	80								
COCC1(C(=O)N2CSc3cc(C)c(-c4ccccc4F)nc32)CC(Cl)=NO1 (stereo not drawn) [Example I-128]		90	100	90	80	90	90			80	90							post-emergence activity against POAAN in % (Poa annua (POAAN) [1]; application rate 1280 g/ha): 90%; pre-emergence activity against VERPE in % (Veronica persica (VERPE) [8]; application rate 320 g/ha): 90%
Cc1cc2c(nc1-c1ccccc1F)NCS2 [Example I-007, 5-(2-fluorophenyl)-6-methyl-2,3-dihydro[1,3]thiazolo[4,5-b]pyridine]												90	100	80	90			pest or weed control at 1280 g/ha (Stellaria media (STEME); [10]): 90%; pest or weed control at 1280 g/ha [6, 11]: 90%; percent crop plant damage at 80 g/ha (Oryza sativa (ORYZA)): 10%; pest or weed control at 80 g/ha (Veronica persica (VERPE) [9]; [12]): 80%
Cc1cc2c(nc1-c1ccccc1F)N(C(=O)C1(C)CC(Cl)=NO1)CS2 (stereo not drawn) [Example I-083]	90	90		90	90	90	90		90	90	90							pre-emergence activity against POAAN in % (Poa annua (POAAN) [3]; application rate 1280 g/ha): 100%; post-emergence activity against ORYZA in % (Oryza sativa (ORYZA); crop plant damage, application rate 320 g/ha): 10%
CCS(=O)(=O)N1CSc2cc(C)c(-c3ccccc3F)nc21 [Example I-060, 3-(ethylsulfonyl)-5-(2-fluorophenyl)-6-methyl-2,3-dihydro[1,3]thiazolo[4,5-b]pyridine]												90	100	80	90			pest or weed control at 320 g/ha ([2]; Digitaria sanguinalis, post-emergence, 504 h, application rate 320 g/ha, read-out: post-emergence activity against DIGSA in %): 90%; pest or weed control at 320 g/ha (Stellaria media (STEME); Stellaria media, post-emergence, 504 h, application rate 320 g/ha, read-out: post-emergence activity against STEME in %): 90%; pest or weed control at 1280 g/ha ([5]; application rate 1280 g/ha): 90%; pest or weed control at 320 g/ha ([6]; Amaranthus retroflexus, post-emergence, 504 h, application rate 320 g/ha, read-out: post-emergence activity against AMARE in %): 90%; pest or weed control at 320 g/ha ([7]; Amaranthus retroflexus, pre-emergence, 504 h, application rate 320 g/ha, read-out: pre-emergence activity against AMARE in %): 90%; percent crop plant damage at 80 g/ha (Oryza sativa (ORYZA)): 0%; pest or weed control at 80 g/ha (Veronica persica (VERPE) [9]; [12]): 80%
CC1(C(=O)N2CSc3cc(Br)c(-c4ccccc4)nc32)CC(Cl)=NO1 (stereo not drawn) [Example I-139]	90	90	100				90	90	90							90	80	post-emergence activity against STEME in % (Stellaria media (STEME); application rate 1280 g/ha): 90%; post-emergence activity against ABUTH in % ([5]; application rate 1280 g/ha): 90%
Cc1cc2c(nc1-c1ccccc1)N(C(=O)C1(C)CC(Cl)=NO1)CS2 (stereo not drawn) [Example I-088]	90	100	100	90		90	90		90		90					90	80	
CC1(C(=O)N2CSc3cc(Br)c(-c4ccccc4Cl)nc32)CC(Cl)=NO1 (stereo not drawn) [Example I-141, [6-bromo-5-(2-chlorophenyl)[1,3]thiazolo[4,5-b]pyridin-3(2H)-yl](3-chloro-5-methyl-4,5-dihydro-1,2-oxazol-5-yl)methanone]												90	100	80	90			pest or weed control at 1280 g/ha ([2]; Digitaria sanguinalis, post-emergence, 504 h, application rate 1280 g/ha, read-out: post-emergence activity against DIGSA in %): 90%; pest or weed control at 1280 g/ha (Stellaria media (STEME); [10]): 90%; pest or weed control at 1280 g/ha ([5]; application rate 1280 g/ha): 90%; pest or weed control at 1280 g/ha [6, 11]: 90%; pest or weed control at 80 g/ha ([7]; Amaranthus retroflexus, pre-emergence, 504 h, application rate 80 g/ha, read-out: pre-emergence activity against AMARE in %): 100%; pest or weed control at 320 g/ha (Veronica persica (VERPE) [9]; Veronica persica, 504 h, application rate 320 g/ha, read-out: post-emergence activity against VERPE in %): 80%
Cc1ccccc1-c1nc2c(cc1C)SCN2C(=O)C1(C)CC(Cl)=NO1 (stereo not drawn) [Example I-137]	90	90	100				90	90								80	80	post-emergence activity against STEME in % (Stellaria media (STEME); application rate 1280 g/ha): 90%; post-emergence activity against ABUTH in % ([5]; application rate 1280 g/ha): 90%; pre-emergence activity against VERPE in % (Veronica persica (VERPE) [8]; application rate 320 g/ha): 90%
